One series addresses Histone deacetylase 1 (Homo sapiens, UniProt Q13547). Description: Inhibition of full length human recombinant C-terminal FLAG/His-tagged HDAC1 expressed in baculovirus infected sf9 cells using fluorogenic HDAC substrate 3 after 30 mins by fluorescence assay.
Another series concerns the target Histone deacetylase 2 (Homo sapiens, UniProt Q92769). Description: Inhibition of full length human recombinant C-terminal His-tagged HDAC2 expressed in baculovirus infected sf9 cells using fluorogenic HDAC substrate 3 after 30 mins by fluorescence assay.
In series [1] the target is Histone deacetylase 3/Nuclear receptor corepressor 2 (HDAC3/NCoR2) (Homo sapiens, UniProt O15379). Description: Inhibition of full length human recombinant C-terminal His-tagged HDAC3/N-terminal GST-tagged NCOR2 (95 to 489 residues) expressed in baculovirus infected sf9 cells using fluorogenic HDAC substrate 3 after 30 mins by fluorescence assay.
A short description of series [2]: Cytotoxicity against human THLE2 cells after 72 hrs by vialight cell proliferation assay. It counts as cell-based, THLE-2. The note with it: read-out: LC50.
Another series has as its target CYP1A2 (Homo sapiens, UniProt P05177). The series is described as follows: Inhibition of CYP1A2 in human liver microsomes at 10 uM after 10 mins in presence of NADPH by LC-MS/MS analysis relative to control. Format: ADME.
A further series has as its target CYP2D6 (Homo sapiens, UniProt P10635). The series is described as follows: Inhibition of CYP2D6 in human liver microsomes at 10 uM after 10 mins in presence of NADPH by LC-MS/MS analysis relative to control. It counts as ADME.
The target of series [3] is High affinity cGMP-specific 3',5'-cyclic phosphodiesterase 9A (Homo sapiens, UniProt O76083). Description: Inhibition of full length human recombinant N-terminal GST-tagged PDE9A2 expressed in baculovirus infected sf9 cells using cGMP as substrate after 30 mins by fluorescence assay.
Series [4] addresses cGMP-inhibited 3',5'-cyclic phosphodiesterase 3A (Homo sapiens, UniProt Q14432). The series is described as follows: Inhibition of PDE3A (unknown origin) using FAM-cGMP as substrate by fluorescence assay.
Another series concerns the target Histone deacetylase 4 (Homo sapiens, UniProt P56524). Description: Inhibition of human HDAC4.
Another series concerns Mus musculus. The series is described as follows: In vivo inhibition of PDE5 in mouse assessed as increase in pCREB-Ser133 level in hippocampus at 40 mg/kg, ip measured after 1 hr by Western blot analysis. Set-up: scale not given: the % may be the effect or the level left. It counts as functional.
A further series is described as follows: cells. The note with it: Homo sapiens, SH-SY5Y, 2 h, read-out: FC.

Chain of CYP2D6 (P10635 whole entry): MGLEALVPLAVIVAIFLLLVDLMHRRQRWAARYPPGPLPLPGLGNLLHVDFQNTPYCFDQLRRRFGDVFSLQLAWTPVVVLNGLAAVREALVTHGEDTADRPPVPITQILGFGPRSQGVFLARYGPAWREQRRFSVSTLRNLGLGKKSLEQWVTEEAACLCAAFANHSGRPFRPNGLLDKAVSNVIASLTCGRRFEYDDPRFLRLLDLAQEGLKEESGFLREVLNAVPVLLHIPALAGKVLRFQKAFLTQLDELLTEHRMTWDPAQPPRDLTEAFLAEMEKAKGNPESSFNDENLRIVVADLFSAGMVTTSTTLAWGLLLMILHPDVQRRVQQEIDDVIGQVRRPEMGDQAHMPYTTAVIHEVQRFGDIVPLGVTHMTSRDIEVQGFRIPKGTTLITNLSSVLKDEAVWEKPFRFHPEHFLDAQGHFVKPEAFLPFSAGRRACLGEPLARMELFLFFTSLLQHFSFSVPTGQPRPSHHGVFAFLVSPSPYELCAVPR
Chain of Histone deacetylase 1 (Q13547 whole entry): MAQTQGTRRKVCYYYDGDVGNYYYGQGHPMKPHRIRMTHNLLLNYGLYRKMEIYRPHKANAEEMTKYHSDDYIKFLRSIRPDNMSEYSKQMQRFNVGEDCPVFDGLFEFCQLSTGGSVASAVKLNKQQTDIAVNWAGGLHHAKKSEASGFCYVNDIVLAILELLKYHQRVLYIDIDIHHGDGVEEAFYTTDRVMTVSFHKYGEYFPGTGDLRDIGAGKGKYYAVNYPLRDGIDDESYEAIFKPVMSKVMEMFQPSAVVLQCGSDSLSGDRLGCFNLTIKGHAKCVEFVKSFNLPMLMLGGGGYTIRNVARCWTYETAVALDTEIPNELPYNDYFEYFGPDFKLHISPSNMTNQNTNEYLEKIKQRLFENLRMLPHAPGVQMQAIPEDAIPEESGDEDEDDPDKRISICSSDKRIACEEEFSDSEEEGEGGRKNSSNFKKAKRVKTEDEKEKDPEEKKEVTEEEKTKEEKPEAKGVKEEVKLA
Chain of Histone deacetylase 4 (P56524 whole entry): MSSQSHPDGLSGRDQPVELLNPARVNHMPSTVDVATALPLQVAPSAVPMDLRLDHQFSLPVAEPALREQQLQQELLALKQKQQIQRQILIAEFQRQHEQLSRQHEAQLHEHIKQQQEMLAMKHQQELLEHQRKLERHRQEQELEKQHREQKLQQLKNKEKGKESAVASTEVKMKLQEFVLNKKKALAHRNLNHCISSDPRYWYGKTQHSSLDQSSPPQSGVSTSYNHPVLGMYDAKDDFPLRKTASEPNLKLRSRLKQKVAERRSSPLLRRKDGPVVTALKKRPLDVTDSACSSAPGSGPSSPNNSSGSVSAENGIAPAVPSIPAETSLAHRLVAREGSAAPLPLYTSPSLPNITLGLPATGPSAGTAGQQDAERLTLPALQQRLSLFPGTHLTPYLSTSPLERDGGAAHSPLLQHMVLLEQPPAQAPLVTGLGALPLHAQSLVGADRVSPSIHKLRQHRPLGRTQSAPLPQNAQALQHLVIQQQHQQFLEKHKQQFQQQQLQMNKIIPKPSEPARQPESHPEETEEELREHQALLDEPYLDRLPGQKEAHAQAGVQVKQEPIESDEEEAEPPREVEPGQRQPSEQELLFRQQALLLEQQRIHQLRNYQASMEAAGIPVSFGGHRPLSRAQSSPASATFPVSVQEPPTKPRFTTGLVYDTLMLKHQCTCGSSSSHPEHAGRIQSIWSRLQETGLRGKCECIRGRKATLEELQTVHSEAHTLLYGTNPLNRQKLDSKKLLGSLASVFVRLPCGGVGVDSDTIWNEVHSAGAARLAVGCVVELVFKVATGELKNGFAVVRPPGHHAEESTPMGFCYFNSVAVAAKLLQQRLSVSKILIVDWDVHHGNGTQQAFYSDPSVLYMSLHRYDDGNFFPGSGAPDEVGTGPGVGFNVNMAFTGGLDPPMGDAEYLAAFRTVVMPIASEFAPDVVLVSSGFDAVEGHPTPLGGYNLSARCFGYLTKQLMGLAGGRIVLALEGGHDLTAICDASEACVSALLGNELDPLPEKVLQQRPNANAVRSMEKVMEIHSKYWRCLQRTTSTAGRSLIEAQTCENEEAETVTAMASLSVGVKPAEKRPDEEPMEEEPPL
Chain of CYP1A2 (P05177 whole entry): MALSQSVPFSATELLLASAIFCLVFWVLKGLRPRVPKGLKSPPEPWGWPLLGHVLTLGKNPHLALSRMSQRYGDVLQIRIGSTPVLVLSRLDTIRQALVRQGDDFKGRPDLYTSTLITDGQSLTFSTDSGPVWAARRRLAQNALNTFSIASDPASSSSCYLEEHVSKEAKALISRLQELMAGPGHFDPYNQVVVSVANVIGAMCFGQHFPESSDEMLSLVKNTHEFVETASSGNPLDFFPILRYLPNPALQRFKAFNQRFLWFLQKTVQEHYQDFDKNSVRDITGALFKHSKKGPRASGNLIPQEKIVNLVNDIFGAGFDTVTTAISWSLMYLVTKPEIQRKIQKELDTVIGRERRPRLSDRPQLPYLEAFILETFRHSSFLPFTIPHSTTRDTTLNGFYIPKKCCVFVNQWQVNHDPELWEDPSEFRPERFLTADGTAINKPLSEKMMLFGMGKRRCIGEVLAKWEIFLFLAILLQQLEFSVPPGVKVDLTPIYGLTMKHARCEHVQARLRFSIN
Chain of Histone deacetylase 2 (Q92769 whole entry, the tested form may be a part): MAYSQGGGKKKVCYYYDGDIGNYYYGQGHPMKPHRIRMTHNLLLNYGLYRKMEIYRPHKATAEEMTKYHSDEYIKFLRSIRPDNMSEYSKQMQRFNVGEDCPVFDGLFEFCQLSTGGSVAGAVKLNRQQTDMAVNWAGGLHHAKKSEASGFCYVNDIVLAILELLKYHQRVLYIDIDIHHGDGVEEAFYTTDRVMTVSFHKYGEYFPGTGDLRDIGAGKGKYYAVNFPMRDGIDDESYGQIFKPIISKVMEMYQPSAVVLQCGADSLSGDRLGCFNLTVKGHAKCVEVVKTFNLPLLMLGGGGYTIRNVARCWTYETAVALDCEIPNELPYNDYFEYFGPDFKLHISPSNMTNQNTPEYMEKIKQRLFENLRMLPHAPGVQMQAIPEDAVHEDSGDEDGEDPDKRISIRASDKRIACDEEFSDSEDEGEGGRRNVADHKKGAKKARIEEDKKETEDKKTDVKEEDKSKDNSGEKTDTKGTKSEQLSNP
Chain of High affinity cGMP-specific 3',5'-cyclic phosphodiesterase 9A (O76083 whole entry): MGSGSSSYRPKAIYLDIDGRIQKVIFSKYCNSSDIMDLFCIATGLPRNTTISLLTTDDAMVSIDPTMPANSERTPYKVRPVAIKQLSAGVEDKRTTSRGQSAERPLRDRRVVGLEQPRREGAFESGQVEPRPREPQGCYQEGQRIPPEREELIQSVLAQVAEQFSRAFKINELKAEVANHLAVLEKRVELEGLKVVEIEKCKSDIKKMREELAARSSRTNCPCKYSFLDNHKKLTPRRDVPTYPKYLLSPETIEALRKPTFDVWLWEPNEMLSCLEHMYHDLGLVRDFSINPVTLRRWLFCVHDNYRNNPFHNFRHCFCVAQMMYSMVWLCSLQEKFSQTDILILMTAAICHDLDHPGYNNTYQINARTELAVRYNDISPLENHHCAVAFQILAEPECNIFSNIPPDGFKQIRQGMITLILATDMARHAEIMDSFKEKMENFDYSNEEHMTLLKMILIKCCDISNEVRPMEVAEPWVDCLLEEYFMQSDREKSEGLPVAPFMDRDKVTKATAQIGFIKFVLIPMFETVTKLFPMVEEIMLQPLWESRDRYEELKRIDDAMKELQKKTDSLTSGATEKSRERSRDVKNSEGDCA
Chain of cGMP-inhibited 3',5'-cyclic phosphodiesterase 3A (Q14432 whole entry): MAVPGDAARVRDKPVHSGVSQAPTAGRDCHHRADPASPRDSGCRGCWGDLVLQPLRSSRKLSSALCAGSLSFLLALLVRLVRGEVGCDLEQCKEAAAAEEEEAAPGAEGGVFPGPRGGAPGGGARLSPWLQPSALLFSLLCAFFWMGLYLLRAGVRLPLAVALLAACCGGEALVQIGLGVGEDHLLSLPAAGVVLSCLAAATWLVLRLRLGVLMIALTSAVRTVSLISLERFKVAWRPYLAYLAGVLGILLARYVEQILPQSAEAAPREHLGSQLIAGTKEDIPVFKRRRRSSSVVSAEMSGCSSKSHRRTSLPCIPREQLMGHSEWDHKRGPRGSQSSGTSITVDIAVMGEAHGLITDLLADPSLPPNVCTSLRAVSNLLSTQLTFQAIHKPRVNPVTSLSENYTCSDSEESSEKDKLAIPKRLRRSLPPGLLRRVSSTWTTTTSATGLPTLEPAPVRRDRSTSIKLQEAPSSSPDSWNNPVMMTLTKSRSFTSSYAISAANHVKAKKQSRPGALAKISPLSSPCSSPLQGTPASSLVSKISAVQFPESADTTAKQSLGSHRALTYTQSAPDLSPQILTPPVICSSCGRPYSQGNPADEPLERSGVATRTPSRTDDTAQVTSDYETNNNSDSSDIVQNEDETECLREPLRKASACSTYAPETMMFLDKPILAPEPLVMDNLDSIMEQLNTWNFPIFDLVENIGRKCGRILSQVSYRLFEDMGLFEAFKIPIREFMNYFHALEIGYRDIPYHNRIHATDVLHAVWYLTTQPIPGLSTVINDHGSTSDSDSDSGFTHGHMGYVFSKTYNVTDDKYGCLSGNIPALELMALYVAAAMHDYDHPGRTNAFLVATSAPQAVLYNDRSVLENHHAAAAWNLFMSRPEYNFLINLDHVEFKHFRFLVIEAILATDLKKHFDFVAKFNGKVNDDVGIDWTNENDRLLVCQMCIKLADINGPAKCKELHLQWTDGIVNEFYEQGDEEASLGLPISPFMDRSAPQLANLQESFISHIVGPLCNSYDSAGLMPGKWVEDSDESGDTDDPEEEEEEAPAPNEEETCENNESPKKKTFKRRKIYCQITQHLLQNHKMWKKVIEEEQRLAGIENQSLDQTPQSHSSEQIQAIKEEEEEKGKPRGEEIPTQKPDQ

Regarding `CCCc1nn(C)c2c(=O)[nH]c(-c3cc(Cc4ccc(C(=O)NO)s4)ccc3OCC)nc12`, the IC50 is 0.345 µM on Histone deacetylase 1; 3.72 µM on Histone deacetylase 2; 2.09 µM in series [1]; above 10 µM in series [3]; 3.2 µM in series [4]; above 10 µM against Histone deacetylase 4. In [2], the CC50 at 72 h was 6.81 µM. Moreover, the inhibition at 10 min, 10 µM on CYP1A2 and at CYP2D6 was below 50% throughout. In addition, the Activity in the series with Mus musculus is listed as 48%. Further, the fold induction at 1 µM in the series “cells” was found to be 12.1.

These data come from ChEMBL document CHEMBL4196089, “Design, synthesis, biological evaluation and in vivo testing of dual phosphodiesterase 5 (PDE5) and histone deacetylase 6 (HDAC6)-selective inhibitors for the treatment of Alzheimer's disease” (Eur J Med Chem, 2018).
